According to patent US7205315B2, “Bicyclic imino acid derivatives as inhibitors of matrix metalloproteinases” (Sanofi-Aventis Deutschland GmbH, priority 2003, dated 2007):
Structures can show the parent of a compound that is named as a salt.

What was measured:
[1] = target: T1, catalytic domain of human collagenase-1 (MMP-1) (Homo sapiens, UniProt P03956); experiment: Enzyme activity of the catalytic domain of human collagenase-1 (MMP-1), fluorogenic substrate; format: biochemical; conditions: APMA-activated proenzyme, fluorescence 328/393 nm
T1 construct: enzyme activity of the catalytic domain of human collagenase-1 (MMP-1); purchased Biocol, Potsdam MMP1
T1 sequence (P03956 100-269 limits assumed): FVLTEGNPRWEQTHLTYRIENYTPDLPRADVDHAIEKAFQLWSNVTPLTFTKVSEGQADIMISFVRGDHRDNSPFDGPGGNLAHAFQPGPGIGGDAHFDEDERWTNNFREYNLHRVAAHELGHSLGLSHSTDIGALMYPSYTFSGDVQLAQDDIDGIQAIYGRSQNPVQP
Procedure: a) Determining the enzyme activity of the catalytic domain of human collagenase-1 (MMP-1).
(§1) Activation of the proenzyme:
2 parts by volume of proenzyme are incubated, at 37° C. for 1 hour, with 1 part by volume of APMA solution. The APMA solution is prepared from a 10 mmol/l solution of p-aminophenylmercuric acetate in 0.1 mmol/l NaOH by diluting with 3 parts by volume of tris/HCl buffer, pH 7.5 (see below). The pH is adjusted to between 7.0 and 7.5 by adding 1 mmol/l HCl. After the enzyme has been activated, it is diluted with the tris/HCl buffer to a concentration of 2.5 μg/ml.
(§2) In order to measure the enzyme activity, 10 μl of enzyme solution are incubated for 15 minutes with 10 μl of a 3% (v/v) buffered solution of dimethyl sulfoxide (reaction 1). In order to measure the enzyme inhibitor activity, 10 μl of enzyme solution are incubated with 10 μl of a 3% (v/v) buffered solution of dimethyl sulfoxide which contains the enzyme inhibitor (reaction 2).
Both in the case of reaction 1 and in the case of reaction 2, the enzyme reaction is monitored by fluorescence spectroscopy (328 nm (extinction)/393 nm (emission)) after adding 10 μl of a 3% (v/v) aqueous solution of dimethyl sulfoxide which contains 0.3 mmol of the substrate/l.
The enzyme activity is presented as increase in extinction/minute.
The inhibitory effect is calculated as percentage inhibition using the following formula: % inhibition=100−[(increase in extinction/minute in reaction 2)/(increase in extinction/minute in reaction 1)×100].
The IC50, i.e. the inhibitor concentration which is required for 50% inhibition of the enzyme activity, is determined graphically by plotting the percentage inhibitions at different inhibitor concentrations. The buffer solution contains 0.05% Brij (Sigma, Deisenhofen, Germany) and also 0.1 mol of tris/HCl/l, 0.1 mol of NaCl/l, 0.01 mol of CaCl2/l (pH=7.5).
The enzyme solution contains 2.5 μg of the enzyme domain/ml.
The substrate solution contains 0.3 mmol of the fluorogenic substrate (7-methoxycoumarin-4-yl)acetyl-Pro-Leu-Gly-Leu-3-(2′,4′-dinitrophenyl)-L-2,3-diaminopropionyl-Ala-Arg-NH2/l (Bachem, Heidelberg, Germany).

[2] = target: T2, catalytic domain of human collagenase-3 (MMP-13) (Homo sapiens, UniProt P45452); experiment: Enzyme activity of the catalytic domain of human collagenase-3 (MMP-13), fluorogenic substrate; format: biochemical; conditions: APMA-activated proenzyme, fluorescence 328/393 nm
T2 construct: enzyme activity of the catalytic domain of human collagenase-3 (MMP-13); purchased INVITEK, Berlin 30 100 803
Procedure: c) Determining the enzyme activity of the catalytic domain of human collagenase-3 (MMP-13).
as §1
2 parts by volume of proenzyme were incubated, at 37° C. for 1.5 hours, with 1 part by volume of APMA solution. The APMA solution was prepared from a 10 mmol/l solution of p-aminophenylmercuric acetate in 0.1 mmol/l NaOH by diluting the solution with 3 parts by volume of tris/HCl buffer, pH 7.5 (see below). The pH was adjusted to between 7.0 and 7.5 by adding 1 mmol/l HCl. After the enzyme had been activated, it was diluted with the tris/HCl buffer to a concentration of 1.67 μg/ml.
as §2, with “were” for “are”, “contained” for “contains”
Both in the case of reaction 1 and in the case of reaction 2, the enzyme reaction was monitored by fluorescence spectroscopy (328 nm (extinction)/393 nm (emission)) after 10 μl of a 3% (v/v) aqueous solution of dimethyl sulfoxide which contained 0.075 mmol of the substrate/1 had been added.
The enzyme activity was presented as increase in extinction/minute.
The effect of the inhibitor was calculated as a percentage inhibition in accordance with the following formula: % inhibition=100−[(increase in extinction/minute in reaction 2)/(increase in extinction/minute in reaction 1)×100].
The IC50, that is the concentration of inhibitor which is required for 50% inhibition of the enzyme activity, was determined graphically by plotting the percentage inhibitions at different inhibitor concentrations.
The buffer solution contained 0.05% Brij (Sigma, Deisenhofen, Germany) and also 0.1 mol of tris/HCl/l, 0.1 mol of NaCl/l, 0.01 mol of CaCl2/l (pH=7.5). The enzyme solution contained 1.67 μg of the enzyme domain/ml. The substrate solution contained 0.075 mmol of the fluorogenic substrate (7-methoxycoumarin-4-yl)acetyl-Pro-Leu-Gly-Leu-3-(2′,4′-dinitrophenyl)-L-2,3-diaminopropionyl-Ala-Arg-NH2/1 (Bachem, Heidelberg, Germany).

`O=C(NO)C1C2CCCCC2CCN1S(=O)(=O)c1ccc(-c2ccc(OC(F)(F)F)cc2)cc1` (centres unmarked) [Example 19, 2-(4′-trifluoromethoxybiphenyl-4-sulfonyl)decahydroisoquinoline-1-(N-hydroxy)carboxamide] gave an IC50 [1] of 2100 nM and an IC50 [2] of 3 nM.
`O=C(NO)C1C2CCCCC2CCN1S(=O)(=O)c1ccc(Oc2ccc(OC(F)(F)F)cc2)cc1` (centres unmarked) [Example 23, 2-[4-(4-trifluoromethoxyphenoxy)benzenesulfonyl]decahydroisoquinoline-1-(N-hydroxy)carboxamide] gave an IC50 [1] of 290 nM and an IC50 [2] of 2.1 nM.
In the case of `O=C(NO)C1C2CCCCC2CCN1S(=O)(=O)c1ccc(Oc2ccc(F)cc2)cc1` (centres unmarked) [Example 20, 2-[4-(4-fluorophenoxy)benzenesulfonyl]decahydroisoquinoline-1-(N-hydroxy)carboxamide], the IC50 [1] is reported as 41 nM and the IC50 [2] is reported as 2 nM.
`O=C(NO)C1C2CCCCC2CCN1S(=O)(=O)CCc1ccc(-c2ccc(Cl)cc2)cc1` (centres unmarked) [Example 7, 2-[2-(4′-chlorobiphenyl-4-yl)ethanesulfonyl]decahydroisoquinoline-1-(N-hydroxy)carboxamide] gave an IC50 [1] of 600 nM and an IC50 [2] of 7 nM.
For `O=C(NO)[C@@H]1[C@@H]2CCCC[C@@H]2CCN1S(=O)(=O)c1ccc(-c2ccc(Cl)cc2)cc1` (single isomer, unassigned) [Example 15, 2-(4′-chlorobiphenyl-4-sulfonyl)decahydroisoquinoline-1-(N-hydroxy)-carboxamide], the IC50 [1] was 6000 nM and the IC50 [2] was 2300 nM.
`N#Cc1ccc(Oc2ccc(S(=O)(=O)N3CCC4CCCCC4C3C(=O)NO)cc2)cc1` (centres unmarked) [Example 26, 2-[4-(4-cyanophenoxy)benzenesulfonyl]decahydroisoquinoline-1-(N-hydroxy)carboxamide] was tested, and the IC50 [1] was 450 nM and the IC50 [2] was 3 nM.
With `O=C(NO)C1C2CCCCC2CCN1S(=O)(=O)c1ccc(Oc2ccc(OCC(F)(F)F)cc2)cc1` (centres unmarked) [Example 13, 2-{4-[4-(2,2,2-trifluoroethoxy)phenoxy]benzenesulfonyl}decahydroisoquinoline-1-(N-hydroxy)carboxamide] the IC50 [1] was 180 nM and the IC50 [2] was 2 nM.
`O=C(NO)[C@H]1[C@H]2CCCC[C@H]2CCN1S(=O)(=O)c1ccc(-c2ccc(Cl)cc2)cc1` (single isomer, unassigned) [Example 14, 2-(4′-chlorobiphenyl-4-sulfonyl)decahydroisoquinoline-1-(N-hydroxy)-carboxamide] showed an IC50 [1] of 400 nM and an IC50 [2] of 2 nM.
With `O=C(NO)[C@H]1[C@H]2CCCC[C@H]2CCN1S(=O)(=O)c1ccc(Oc2ccc(F)cc2)cc1` [Example 21, 2-[4-(4-fluorophenoxy)benzenesulfonyl]decahydroisoquinoline-1-(N-hydroxy)carboxamide] the IC50 [1] was 21 nM and the IC50 [2] was 1.3 nM.
`O=C(NO)C1C2CCCCC2CCN1S(=O)(=O)c1ccc(-c2ccc(Cl)cc2)cc1` (centres unmarked) [Example 3, 2-(4′-chlorobiphenyl-4-sulfonyl)decahydroisoquinoline-1-(N-hydroxy)-carboxamide] was tested, and the IC50 [1] was 400 nM and the IC50 [2] was 3 nM.
`COc1ccc(Oc2ccc(S(=O)(=O)N3CCC4CCCCC4C3C(=O)NO)cc2)cc1` (centres unmarked) [Example 11, 2-[4-(4-methoxyphenoxy)benzenesulfonyl]decahydroisoquinoline-1-(N-hydroxy)carboxamide] gave an IC50 [1] of 220 nM and an IC50 [2] of 1.5 nM.
Work on `O=C(NO)C1C2CCCCC2CCN1S(=O)(=O)c1ccc(Oc2ccncc2)cc1` (centres unmarked) [Example 9, 2-[4-(pyridin-4-yloxy)benzenesulfonyl]decahydroisoquinoline-1-(N-hydroxy)carboxamide trifluoroacetate] yielded an IC50 [1] of 1000 nM and an IC50 [2] of 21 nM.
Compound `O=C(NO)C1C2CCCCC2CCN1S(=O)(=O)c1ccc(Oc2ccccc2)nc1` (centres unmarked) [Example 5, 2-(6-phenoxypyridine-3-sulfonyl)decahydroisoquinoline-1-(N-hydroxy)-carboxamide trifluoroacetate] has an IC50 [1] of 70 nM and an IC50 [2] of 1.8 nM.
